Entries after “also recorded” stand apart in the source; their conditions may differ.

For assay [1], the system named is CHSE-214 cells infected with IPNV E1-S. Nature of the assay: DNA internucleosomal cleavage induced by IPNV, agarose gel electrophoresis. Particulars: 16 h postinfection. The class given is cell-based, Chinook salmon. As for the experimental part:
Lane 2: DNA isolated from uninfected CHSE-214 cells as a negative control. Lane 3: cells infected for 16 h with an MOI of 1 of E1-S, respectively, at 16 h postinfection. Lanes 6 and 7: CHSE-214 cells treated with aprotinin (400 μg/ml) in the absence and presence of infection by an MOI of 1 of E1-S, respectively, at 16 h postinfection. Lanes 8 and 9: CHSE-214 cells treated with leupeptin (400 μg/ml) in the absence and presence of infection by an MOI of 1 of E1-S, respectively, at 16 h postinfection. Lanes 10 and 11: CHSE-214 cells treated with genistein (100 μg/ml) in the absence and presence of infection by an MOI of 1 of E1-S, respectively; at 16 h postinfection. Lanes 12 and 13: CHSE-214 cells treated with tyrphostin (100 μg/ml) in the absence and presence of infection by an MOI of 1 of E1-S, respectively, at 16 h postinfection. Lanes 14 and 15: CHSE-214 cells treated with 2 mM EDTA in the absence and presence of infection by an MOI of 1 of E1-S, respectively, at 16 h postinfection. All samples were electrophoresed through 1.2% agarose gels and visualized by ethidium bromide staining. Lane 1 contains the molecular weight marekers used in the gel (1 kb DNA ladder from MBI for sizing linear fragments ranging in size from 500 bp to […]).
About 10^5 cells per ml were seeded on a 60-mm-diameter petri dish and allowed to grow for more than 20 h. The cell monolayers received virus at an MOI of 1.0 and were incubated for 8 h. Uninfected control cells were also incubated for 8 h. The two groups were used for DNA fragmentation studies. At the end of incubation, the cells were lysed with lysis buffer (10 mM Tris-HCl, 0.25% Triton X-100, 1 mM EDTA, pH 7.4). After treatment with phenol-chloroform-isoamyl alcohol (25:24:1), the DNA was precipitated in the presence of 0.3 M sodium acetate and cold absolute ethanol at −70° C. for 2 h and then resuspended in 10 mM Tris-HCl (pH 7.4)−1 mM EDTA. […]

For a further assay, the system named is Mcl-1 protein. Nature of the assay: Prevention of down-regulation of Mcl-1 protein expression by IPNV, Western blot. The class given is cell-based, Chinook salmon. Particulars: 16 h. As for the experimental part:
(§1) After adding protein synthesis inhibitor, serine proteinase inhibitors, tyrosine kinase inhibitors and a cation chelator, CHSE-214-EGFP cells were infected with IPNV (MOI of 1) then incubated for 16 h at 18° C. Samples were electrophoresed on a 12% SDS-polyacrylamide gel and electroblotted to a nitrocellulose membrane. Antigen-specific signals were detected with a rabbit anti-EI-S virion antiserum (A) or with a rabbit anti-human Mcl-1 antiserum (Pharmingen) (B) and with a mouse monoclonal IgG antibody directed against mouse actin (Chemicon) (C). (A) Lane 1, normal CHSE-214 cell lysate; lane 2, IPNV infected cell lysate at 16 h postinfection; lanes 3–8, 30 μg of cell lysate, to which was added cycloheximide (100 μg/ml), aprotinin (400 μg/ml), leupeptin (400 μg/ml), genistein (100 μg/ml), tyrphostin (100 μg/ml) and EDTA (2 mM), followed by IPNV infection and incubated cells for 16 h, respectively. (B,C) The nitrocellulose membrane from (A) was stripped and reprobed with Mcl-1 or an actin antibody, respectively.
(§2) About 10^5 cells/ml were seeded on a 60-mm. petri dish for growth for more than 20 h. Monolayers were rinsed twice with phosphate-buffered saline (PBS). Control cells or cells that received virus at a MOI of 1 were incubated for 0, 2, 4, 6, 8, 10 and 24 h. At the end of each incubation time the culture medium was aspirated. The cells were washed with PBS and then lysed in 0.3 nil lysis buffer [10 mM Tris base, 20% glycerol, 10 mM sodium dodecyl sulfate (SDS), 2% β-mercaptoethanol (P-ME), pH 6.8].
(§3) Proteins were separated by SDS-polyacrylamide gel electrophoresis (Laemmli, 1970), electroblotted, and subjected to immunodetection as described by Kain et al. (1994). Blots were incubated with a 1:1500 dilution of anti-human Mcl-1 polyclonal antibodies (Pharmingen) or a 1:7500 dilution of a peroxidase-labeled goat anti-rabbit conjugate (Amershan). Chemi-luminescent detection was performed according to the instructions provided with the Western Exposure Chemiluminescent Dectection System (Amershan). Chemiluminescent signals were imaged by exposure to Kodak XAR-5 film (Eastman Kodak, Rochester, N.Y., USA). Primary (Mcl-1) and secondary antibodies (peroxidase-labeled goat anti-rabbit conjugate) were stripped from blots by incubation in stripping buffer containing 62.5 mM Tris-HCI (pH 6.8), 3.0% (w/v) SDS and 50 mM 1,4-dithiothreitol for 30 min at 55° C. with gentle shaking. The blots were then washed four times for 10 min each time in PBS containing 0.1% (v/v) Tween 20 and reprobed with mouse actin monoclonal antibody (1/1500, Chemicon) and a 1:7500 dilution of a peroxidase-labeled sheep anti-mouse conjugate (Amersham).
(§4) At the end of the incubation period, cells were harvested and the samples were analyzed by Western blot method.

Assay [2] deals with CHSE-214-EGFP cells infected with IPNV. Nature of the assay: EGFP release (membrane integrity) Western blot after drug pre-treatment and IPNV infection. Particulars: 16 h. The class given is cell-based, Chinook salmon. As for the experimental part:
Protein synthesis inhibitors, serine proteinase inhibitors, tyrosine kinase inhibitors, and a cation chelator were added to CHSE-214-EGFP cells before infection with IPNV (MOI of 1). After infection, the cells were incubated for 16 h. Samples were electrophoresed on a 12% SDS-polyacrylamide gel and electroblotted to a nitrocellulose membrane. Antigen-specific signals were detected with either rabbit anti-GFP serum (A and C) or a mouse IgG monoclonal antibody directed against actin (B). The chemiluminescent signal was imaged on Kodak XAR-5 film by using a 5-min (A), a 1-min (B), or a 30-min (C) exposure. (A) Lanes: 1, 0.2 μg of recombinant wild-type GFP as a positive control; 2, normal CHSE-214-EGFP cell lysate; 3, 30 μg of cell lysate protein corresponding to IPNV infection; 4–9, 30 μg of cell lysate protein corresponding to pre-treatment with cycloheximide (CHX) (100 μg/ml), aprotinin (400 μg/ml), leupeptin (400 μg/ml), genistein (100 μg/ml), tyrphostin (100 μg/ml), and EDTA (2 mM) and then followed by virus infection for 16 h, respectively. (B) The nitrocellulose membrane from panel A was stripped and reprobed with an actin antibody. (C) Lanes: 1, 100 ng of wide-type GFP; 2, 30 μg of supernatant medium protein from normal CHSE-214 cells; 3, 30 μg of supernatant medium protein from IPNV-infected cells at 16 h p.i. 4–9, 30 μg of supernatant medium protein corresponding to treatment with cycloheximide (CHX) (100 μg/ml), aprotinin (400 μg/ml), leupeptin (400 μg/ml), genistein (100 μg/ml), tyrphostin (100 μg/ml), and EDTA (2 mM) and then followed by virus infection for 16 h, respectively.
About 10^5 cells per ml were seeded on a 60-mm-diameter petri dish and allowed to grow for more than 20 h. The cell monolayers were rinsed twice with phosphate-buffered saline (PBS), after which they were infected at an MOI of 1 and incubated for 0, 2, 4, 6, 8, 10, 12, and 24 h post infection (p.i.). Uninfected control cells were also incubated for the same periods of time. At the end of each incubation time, the culture medium was aspirated. The cells were washed with PBS and then lysed in 0.3 ml of lysis buffer (10 mM Tris base, 20% glycerol, 10 mM sodium dodecyl sulfate [SDS], 2% β-mercaptoethanol, pH 6.8).
Proteins were separated by SDS-polyacrylamide gel electrophoresis, electroblotted, and subjected to immunodetection as described by Kain et al. (1994), Bio Techniques, 17:982–987. Blots were incubated with a 1:7,500 dilution of an immunoglobulin fraction (Clontech) and a 1:1,500 dilution of a peroxidase-labeled goat anti-rabbit conjugate (Amersham). Chemilumine-scence detection was performed in accordance with the instructions provided with the Western Exposure Chemiluminescent Detection System (Amersham). Chemiluminescent signals were imaged by exposure of Kodak XAR-5 film (Eastman Kodak, Rochester, N.Y.). Stripping and reprobing of the Western blot and removal of the primary and secondary antibodies from blot were achieved by incubation in stripping buffer containing 62.5 mM Tris-HCl (pH 6.8), 3.0% (wt/vol) SDS, and 50 mM 1,4-dithiothreitol for 30 min at 55° C. with gentle shaking. The blot was washed three times in PBS containing 0.1% (vol/vol) Tween 20 for 10 min each time and reprobed with antibodies beginning at the membrane blocking step.
At the end of the incubation period, cells were harvested and samples were analyzed by Western blotting.

For the next assay, the system named is IPNV E1-S. Nature of the assay: Blocking of viral replication / viral protein expression, Western blot with anti-E1-S virion antiserum. Particulars: 16 h. The class given is cell-based, infectious pancreatic necrosis virus. The procedure:
as §1, §2, §3, §4

The mark [3] stands for this setting: 400 μg/ml before IPNV infection.
Setting [4] is: 400 μg/ml added before IPNV infection (MOI 1).

For the compound `C[C@@H]1C[C@@H]([C@H](O)CC2CC(=O)NC(=O)C2)C(=O)[C@@H](C)C1` [CHX, cycloheximide], the “induction of DNA internucleosomal cleavage by IPNV” value (shortened to “induction”) in assay [1] (10 μg/ml before IPNV infection (MOI 1)) is “blocked the induction of DNA internucleosomal cleavage”. Further, the “prevention of down-regulation of Mcl-1 protein expression” value is reported as “helped to maintain Mcl-1 expression level” in the assay with Mcl-1 protein (10 μg/ml before IPNV infection) and “partially prevented down-regulation of Mcl-1 protein expression” in the assay with Mcl-1 protein (10 μg/ml before IPNV infection, listed as cyclohexamide). Also, the “prevention of EGFP release” value in assay [2] (10 μg/ml added before IPNV infection (MOI 1)) is reported as “completely prevented EGFP release”. Also, the “viral replication / viral protein expression” value was “blocked viral protein expression” in the assay on IPNV E1-S (10 μg/ml added to CHSE-214 cells before IPNV infection) and “viral replication was prevented” in the assay on IPNV E1-S (10 μg/ml added to CHSE-214 cells before IPNV infection, listed as cyclohexamide).

Regarding `O=c1c(-c2ccc(O)cc2)coc2cc(O)cc(O)c12` [genistein], the “induction” value in assay [1] (100 μg/ml before IPNV infection (MOI 1)) was “blocked the induction of DNA internucleosomal cleavage”. Besides, in the assay with Mcl-1 protein (100 μg/ml before IPNV infection), the “prevention of down-regulation of Mcl-1 protein expression” value was “partially prevented down-regulation of Mcl-1 protein expression; also recorded: helped to maintain Mcl-1 expression level”. In assay [2] (100 μg/ml added before IPNV infection (MOI 1)), the “prevention of EGFP release” value is listed as “partially prevented EGFP release”. Besides, in the assay with IPNV E1-S (100 μg/ml added to CHSE-214 cells before IPNV infection), the “viral replication / viral protein expression” value is given as “viral replication was prevented; also recorded: blocked viral protein expression”.

Turning to aprotinin, in the assay on Mcl-1 protein (setting [3]), the “prevention of down-regulation of Mcl-1 protein expression” value is given as “could not”. For the same compound, the “prevention of EGFP release” value in assay [2] (setting [4]) was “did not prevent EGFP release”.

As for `O=C(O)CN(CCN(CC(=O)O)CC(=O)O)CC(=O)O` [EDTA], the “induction” value in assay [1] (2 mM before IPNV infection (MOI 1)) was “minor internucleosomal cleavage; also recorded: blocked the induction of DNA internucleosomal cleavage”. The “prevention of down-regulation of Mcl-1 protein expression” value in the assay with Mcl-1 protein (2 mM before IPNV infection) is on record as “partially prevented down-regulation of Mcl-1 protein expression; also recorded: helped to maintain Mcl-1 expression level”. Further, the “prevention of EGFP release” value in assay [2] (2 mM added before IPNV infection (MOI 1)) is given as “completely prevented EGFP release”. Also, the “viral replication / viral protein expression” value with IPNV E1-S (2 mM added to CHSE-214 cells before IPNV infection) was “viral replication was prevented; also recorded: blocked viral protein expression”.

On to `CC(=O)N[C@@H](CC(C)C)C(=O)N[C@@H](CC(C)C)C(=O)N[C@H](C=O)CCCNC(=N)N` [leupeptin], for which the “prevention of down-regulation of Mcl-1 protein expression” value in the assay on Mcl-1 protein (setting [3]) is on record as “could not”. Further, the “prevention of EGFP release” value in assay [2] (setting [4]) is reported as “did not prevent EGFP release”.

These data come from patent US7008621B2, “Regulation of apoptosis in aquatic organisms by aquabirnavirus” (Academia Sinica, priority 1999, dated 2006).
